Laboratory results reported in doi:10.1101/2024.10.14.618151v1 (bioRxiv, 2024).
Non-standard residues stand in square brackets, D forms with d. Residues, ends and D or L forms follow the SMILES beside them. No end group written: not given here. pGlu = O=C1CC[C@@H](C(=O)O)N1

Test system: PBL migration across TNF-α/IFN-γ-stimulated endothelial cells (HDBEC)
Settings: for IC50: 24 h

IC50 | Compound | effect on lymphocyte migration in vitro
0.0032 nM | C[C@H](NC(=O)CNC(=O)[C@@H]1CCC(=O)N1)C(N)=O [[PyroGlu]-GA-NH2] ([pGlu]-Gly-Ala-NH2) | –
0.024 nM | CC(C)[C@@H](NC(=O)[C@H](N)[C@H](C)O)C(=O)N[C@H](CO)C(N)=O [tvs-NH2] (H-[dT]-[dV]-[dS]-NH2) | –
– | SVTEQGA | full activity
0.045 nM | SVTEQGAELSNEER [PEPITEM] | –
